# Publication PMC11714206, “Massively Parallel Screening of Toll/Interleukin‐1 Receptor (TIR)‐Derived Peptides Reveals Multiple Toll‐Like Receptors (TLRs)‐Targeting Immunomodulatory Peptides” (Advanced Science, 2024)
# Values joined by “and” are separate entries in the source; they are usually repeats but may differ in a detail not shown here. Identical values can stand only once.
# Biological target: T1, MyD88^TIR (Homo sapiens, UniProt Q99836)
# T1 construct: MyD88 (residues 148–296); 6xHis; made in house; host or cells: E. coli BL21 (DE3)
# Assay: T‐Surf phage library (P8 and P3) selection against MyD88^TIR, four rounds, NGS read counts
# Format: binding
# Conditions: for Rank (after): P3_MyD88: rank by count after grouping; for Rank (before): P3_MyD88: rank by count before grouping; for P3_MyD88 Rank (after) / P3_MyD88 Rank (before): P3 library; for Population: P3_MyD88 pool: P3 T-Surf phage library, 4th round of selection against MyD88 TIR, share of NGS reads
# In short: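 Read counts come from NGS of phage pools after the fourth selection round, barcoded by 20-cycle PCR and filtered for quality ≥30. Each round: phage incubated 1 h at RT on immobilised TIR protein (5 µg mL^−1, BSA-blocked), washed, HCl-eluted and amplified in E. coli TG1.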
# [1] = 4R selection against MyD88, rank after grouping
# [2] = 4R selection against MyD88, rank before grouping
# [3] = selection against MyD88, rank after grouping
# [4] = selection against MyD88, rank before grouping
# [5] = selection against MyD88 TIR, rank by count after grouping
# [6] = selection against MyD88 TIR, rank by count before grouping
# T1 sequence (Q99836 148-296): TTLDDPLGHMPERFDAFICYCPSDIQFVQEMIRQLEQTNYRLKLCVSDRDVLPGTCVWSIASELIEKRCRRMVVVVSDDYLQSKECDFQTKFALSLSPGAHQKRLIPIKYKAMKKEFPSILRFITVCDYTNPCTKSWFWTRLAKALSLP
substance,measurement,setting,value
SSFREGLWCLRELSKK,Rank (after),,394
same,Rank (before),,3156
SSFREGLWHLLQLSLK,P3_MyD88 Rank (after),[1],584
same,P3_MyD88 Rank (before),[2],3198
SSFREGLWHLLVLSKK,Rank (after),,160
same,Rank (before),,3197
SSFREGLWRLL*LSKK,Population,,0.00291%
SSFREGLWRLLELCKK,Population,,0.0032%
SSFREGLWRLLELGKK,Population,,0.00437%
SSFREGLWRLLELRKK,Population,,0.0032%
SSFREGLWRLLELRKN,P3_MyD88 Rank (after),[1],588
same,P3_MyD88 Rank (before),[2],3169
SSFREGLWRLLELSEK,Population,,0.00349%
SSFREGLWRLLELSET,Rank (after),,145
same,Rank (before),,1199
SSFREGLWRLLELSKK,Population,,0.00466% and 0.00437% and 0.00408% and 0.00378% and 0.00349% and 0.0032% and 0.00291%
SSFREGLWRLLELSKN,Population,,0.00349%
SSFREGLWRLLELSKR,Population,,0.00291%
SSFREGLWRLLELSQN,P3_MyD88 Rank (after),[3],544
same,P3_MyD88 Rank (before),[4],3171
SSFREGLWRLLELTKK,Population,,0.0032%
SSFREGLWRLLEVSQK,P3_MyD88 Rank (after),[5],199
same,P3_MyD88 Rank (before),[6],3151
SSFREGLWRLLGLRKK,P3_MyD88 Rank (after),[3],553
same,P3_MyD88 Rank (before),[4],3165
SSFREGLWRLLKLNKK,P3_MyD88 Rank (after),[5],266
same,P3_MyD88 Rank (before),[6],3181
SSFREGLWRLLKLSKK,Population,,0.00349%
SSFREGLWRLMALIKK,P3_MyD88 Rank (after),[1],600
same,P3_MyD88 Rank (before),[2],3188
SSFREGLWRLPELLR,Rank (after),,101
same,Rank (before),,402
SSFREGLWRLPELSRK,Rank (after),,121
same,Rank (before),,3183
SSFREGLWRLQALSKK,Rank (after),,458
same,Rank (before),,3185
SSFREGLWRLQELSKT,Rank (after),,158
same,Rank (before),,3187
SSFREGLWRLVYLSKK,P3_MyD88 Rank (after),[3],538
same,P3_MyD88 Rank (before),[4],3160
SSFREGLWSLLELSKN,Rank (after),,183
same,Rank (before),,3200
SSFREGMWRLLELSKK,Population,,0.00408%
SSFREGMWRLMVLSKK,P3_MyD88 Rank (after),[3],562
same,P3_MyD88 Rank (before),[4],3219
SSFREGPWRLLALSKK,P3_MyD88 Rank (after),[3],509
same,P3_MyD88 Rank (before),[4],3216
SSFREGPWRLLELSKN,P3_MyD88 Rank (after),[1],609
same,P3_MyD88 Rank (before),[2],3217
SSFREGQWCLMELCKK,P3_MyD88 Rank (after),[5],280
same,P3_MyD88 Rank (before),[6],3218
SSFREGRWRLLELSKK,Population,,0.0032%
SSFREGVWRLLEVSKK,Rank (after),,151
same,Rank (before),,3148
SSFREGVWRLPEMSTK,P3_MyD88 Rank (after),[1],660
same,P3_MyD88 Rank (before),[2],3149
SSFREQLRPALKERLP,P3_MyD88 Rank (after),[5],215
same,P3_MyD88 Rank (before),[6],1210
SSFRERLCRLLELSKK,P3_MyD88 Rank (after),[5],235
same,P3_MyD88 Rank (before),[6],3242
SSFRERLWRLLELIKK,P3_MyD88 Rank (after),[1],644
same,P3_MyD88 Rank (before),[2],3246
SSFRERLWRPVALSKK,P3_MyD88 Rank (after),[3],493
same,P3_MyD88 Rank (before),[4],3227
SSFRESLWRLLALNKR,Rank (after),,395
same,Rank (before),,3228
SSFRESLWRLLELSKK,Population,,0.0032%
SSFRGGLWRLLELRKE,P3_MyD88 Rank (after),[3],528
same,P3_MyD88 Rank (before),[4],3131
SSFRGGLWRLLELSKK,Population,,0.00349%
SSFRKGLWRLLELLKK,Rank (after),,150
same,Rank (before),,3231
SSFRKGLWRLLELSKK,Population,,0.00408%
SSFRKGVWRVRKLSKK,P3_MyD88 Rank (after),"selection against MyD88, rank by count after grouping",717
same,P3_MyD88 Rank (before),"selection against MyD88, rank by count before grouping",3230
SSFRQGLWRLRELSKK,Rank (after),,405
same,Rank (before),,3229
SSFRRPVASAGTEQK,Rank (after),,471
same,Rank (before),,3247
SSFRVGLWRLLELSKK,Population,,0.00291%
SSFSEGLWRLLELRKK,P3_MyD88 Rank (after),[5],191
same,P3_MyD88 Rank (before),[6],3251
SSGRECLWRLLELRKK,Rank (after),,415
same,Rank (before),,3270
SSICEGLWRLLELSKK,Rank (after),,453
same,Rank (before),,3276
SSIREGLWRQLELSKK,P3_MyD88 Rank (after),[1],665
same,P3_MyD88 Rank (before),[2],3277
SSLLEGRWALLELSKK,Rank (after),,459
same,Rank (before),,3253
SSLREGLWPLLELSKK,Rank (after),,94
same,Rank (before),,1214
